Data published in ChEMBL document CHEMBL1157833, “Serotonin derivatives as a new class of non-ATP-competitive receptor tyrosine kinase inhibitors” (Bioorg Med Chem, 2010).
Where a name gives a salt, the structure may show the parent alone.

Tests used:
[1] = biological target: T1, Epidermal growth factor receptor (Homo sapiens, UniProt P00533); test: Inhibition of EGFR after 30 mins by chemiluminescence ELISA
[2] = biological target: T2, Insulin-like growth factor 1 receptor (Homo sapiens, UniProt P08069); test: Inhibition of IGF1R after 30 mins by chemiluminescence ELISA
[3] = biological target: T3, Vascular endothelial growth factor receptor 2 (Homo sapiens, UniProt P35968); test: Inhibition of VEGFR2 after 30 mins by chemiluminescence ELISA
[4] = biological target: T4, Vascular endothelial growth factor receptor 3 (Homo sapiens, UniProt P35916); test: Inhibition of VEGFR3 after 30 mins by chemiluminescence ELISA
HUVEC [5] = test: Cytotoxicity against HUVEC after 24 hrs by WST1 assay; assay type: cell-based; settings: Homo sapiens
HT-29 [6] = test: Antiproliferative activity against human HT-29 cells assessed as BrdU incorporation into mitotic active cells after 24 hrs by luminometry; assay type: functional, cell-based; settings: HT-29, 24 h
HT-29 [7] = test: Cytotoxicity against human HT-29 cells after 24 hrs by WST1 assay; assay type: functional, cell-based; settings: HT-29, 24 h
MCF7 [8] = test: Cytotoxicity against human MCF7 cells after 24 hrs by WST1 assay; assay type: functional, cell-based; settings: MCF7, 24 h
HUVEC [9] = test: Antiproliferative activity against HUVEC assessed as BrdU incorporation into mitotic active cells after 24 hrs by luminometry; assay type: cell-based; settings: Homo sapiens
MCF7 [10] = test: Antiproliferative activity against human MCF7 cells assessed as BrdU incorporation into mitotic active cells after 24 hrs by luminometry; assay type: functional, cell-based; settings: MCF7, 24 h
[11] = Cytotoxicity against HEPM cells after 24 hrs by WST1 assay; assay type: cell-based; settings: Homo sapiens
[12] = Antiproliferative activity against HEPM cells assessed as BrdU incorporation into mitotic active cells after 24 hrs by luminometry; assay type: cell-based; settings: Homo sapiens
[13] = biological target: T1, Epidermal growth factor receptor
Description: Noncompetitive inhibition of EGFR after 30 mins by chemiluminescence ELISA in presence of 25 uM ATP

[14] = biological target: T2, Insulin-like growth factor 1 receptor; test: Noncompetitive inhibition of IGF1R after 30 mins by chemiluminescence ELISA in presence of 250 uM ATP
[15] = biological target: T3, Vascular endothelial growth factor receptor 2; test: Noncompetitive inhibition of VEGFR2 after 30 mins by chemiluminescence ELISA in presence of 50 uM ATP
[16] = biological target: T4, Vascular endothelial growth factor receptor 3; test: Noncompetitive inhibition of VEGFR3 after 30 mins by chemiluminescence ELISA in presence of 50 uM ATP
[17] = biological target: T1, Epidermal growth factor receptor; remark: listed apart in the source
Description: Noncompetitive inhibition of EGFR after 30 mins by chemiluminescence ELISA in presence of 250 uM ATP

[18] = biological target: T4, Vascular endothelial growth factor receptor 3; test: Noncompetitive inhibition of VEGFR3 after 30 mins by chemiluminescence ELISA in presence of 25 uM ATP
[19] = biological target: T2, Insulin-like growth factor 1 receptor; test: Noncompetitive inhibition of IGF1R after 30 mins by chemiluminescence ELISA in presence of 25 uM ATP
[20] = biological target: T3, Vascular endothelial growth factor receptor 2; test: Noncompetitive inhibition of VEGFR2 after 30 mins by chemiluminescence ELISA in presence of 250 uM ATP
[21] = biological target: T2, Insulin-like growth factor 1 receptor; test: Noncompetitive inhibition of IGF1R after 30 mins by chemiluminescence ELISA in presence of 50 uM ATP
[22] = biological target: T3, Vascular endothelial growth factor receptor 2; test: Noncompetitive inhibition of VEGFR2 after 30 mins by chemiluminescence ELISA in presence of 25 uM ATP
[23] = biological target: T1, Epidermal growth factor receptor; remark: listed apart in the source
Description: Noncompetitive inhibition of EGFR after 30 mins by chemiluminescence ELISA in presence of 50 uM ATP

[24] = biological target: T4, Vascular endothelial growth factor receptor 3; test: Noncompetitive inhibition of VEGFR3 after 30 mins by chemiluminescence ELISA in presence of 250 uM ATP

T2 sequence (P08069 31-736 limits assumed): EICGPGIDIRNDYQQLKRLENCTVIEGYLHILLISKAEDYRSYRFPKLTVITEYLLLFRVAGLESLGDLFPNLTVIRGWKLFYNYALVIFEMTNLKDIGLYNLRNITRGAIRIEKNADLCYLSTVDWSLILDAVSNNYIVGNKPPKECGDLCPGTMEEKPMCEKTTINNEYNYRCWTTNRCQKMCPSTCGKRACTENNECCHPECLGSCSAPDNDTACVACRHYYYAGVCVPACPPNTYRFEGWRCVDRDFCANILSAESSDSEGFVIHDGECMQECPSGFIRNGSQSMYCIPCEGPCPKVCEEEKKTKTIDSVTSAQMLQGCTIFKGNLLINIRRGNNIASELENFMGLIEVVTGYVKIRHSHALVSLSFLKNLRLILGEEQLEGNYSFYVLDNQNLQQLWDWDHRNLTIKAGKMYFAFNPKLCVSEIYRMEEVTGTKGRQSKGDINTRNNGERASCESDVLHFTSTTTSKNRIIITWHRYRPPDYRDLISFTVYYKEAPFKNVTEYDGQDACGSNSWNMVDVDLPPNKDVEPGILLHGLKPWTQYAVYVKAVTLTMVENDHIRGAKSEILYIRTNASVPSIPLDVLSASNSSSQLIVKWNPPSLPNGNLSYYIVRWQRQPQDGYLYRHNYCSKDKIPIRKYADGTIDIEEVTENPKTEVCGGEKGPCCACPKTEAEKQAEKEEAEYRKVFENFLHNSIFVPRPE
T2 sequence (P08069 741-1367 limits assumed): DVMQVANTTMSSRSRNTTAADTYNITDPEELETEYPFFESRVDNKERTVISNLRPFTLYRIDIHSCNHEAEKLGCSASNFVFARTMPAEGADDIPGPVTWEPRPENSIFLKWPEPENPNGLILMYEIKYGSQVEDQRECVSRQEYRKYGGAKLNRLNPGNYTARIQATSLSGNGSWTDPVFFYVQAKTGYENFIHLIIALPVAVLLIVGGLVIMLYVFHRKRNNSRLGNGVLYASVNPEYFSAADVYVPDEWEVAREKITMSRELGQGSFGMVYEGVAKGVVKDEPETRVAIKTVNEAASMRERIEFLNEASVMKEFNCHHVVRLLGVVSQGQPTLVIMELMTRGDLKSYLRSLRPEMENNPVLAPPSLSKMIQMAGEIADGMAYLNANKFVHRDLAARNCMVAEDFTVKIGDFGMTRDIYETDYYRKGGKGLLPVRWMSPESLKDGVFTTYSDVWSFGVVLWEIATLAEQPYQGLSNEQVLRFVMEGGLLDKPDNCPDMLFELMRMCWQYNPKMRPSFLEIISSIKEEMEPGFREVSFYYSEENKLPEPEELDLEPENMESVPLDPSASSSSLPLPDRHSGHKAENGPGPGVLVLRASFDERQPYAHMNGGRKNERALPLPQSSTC
T3 sequence (P35968 whole entry): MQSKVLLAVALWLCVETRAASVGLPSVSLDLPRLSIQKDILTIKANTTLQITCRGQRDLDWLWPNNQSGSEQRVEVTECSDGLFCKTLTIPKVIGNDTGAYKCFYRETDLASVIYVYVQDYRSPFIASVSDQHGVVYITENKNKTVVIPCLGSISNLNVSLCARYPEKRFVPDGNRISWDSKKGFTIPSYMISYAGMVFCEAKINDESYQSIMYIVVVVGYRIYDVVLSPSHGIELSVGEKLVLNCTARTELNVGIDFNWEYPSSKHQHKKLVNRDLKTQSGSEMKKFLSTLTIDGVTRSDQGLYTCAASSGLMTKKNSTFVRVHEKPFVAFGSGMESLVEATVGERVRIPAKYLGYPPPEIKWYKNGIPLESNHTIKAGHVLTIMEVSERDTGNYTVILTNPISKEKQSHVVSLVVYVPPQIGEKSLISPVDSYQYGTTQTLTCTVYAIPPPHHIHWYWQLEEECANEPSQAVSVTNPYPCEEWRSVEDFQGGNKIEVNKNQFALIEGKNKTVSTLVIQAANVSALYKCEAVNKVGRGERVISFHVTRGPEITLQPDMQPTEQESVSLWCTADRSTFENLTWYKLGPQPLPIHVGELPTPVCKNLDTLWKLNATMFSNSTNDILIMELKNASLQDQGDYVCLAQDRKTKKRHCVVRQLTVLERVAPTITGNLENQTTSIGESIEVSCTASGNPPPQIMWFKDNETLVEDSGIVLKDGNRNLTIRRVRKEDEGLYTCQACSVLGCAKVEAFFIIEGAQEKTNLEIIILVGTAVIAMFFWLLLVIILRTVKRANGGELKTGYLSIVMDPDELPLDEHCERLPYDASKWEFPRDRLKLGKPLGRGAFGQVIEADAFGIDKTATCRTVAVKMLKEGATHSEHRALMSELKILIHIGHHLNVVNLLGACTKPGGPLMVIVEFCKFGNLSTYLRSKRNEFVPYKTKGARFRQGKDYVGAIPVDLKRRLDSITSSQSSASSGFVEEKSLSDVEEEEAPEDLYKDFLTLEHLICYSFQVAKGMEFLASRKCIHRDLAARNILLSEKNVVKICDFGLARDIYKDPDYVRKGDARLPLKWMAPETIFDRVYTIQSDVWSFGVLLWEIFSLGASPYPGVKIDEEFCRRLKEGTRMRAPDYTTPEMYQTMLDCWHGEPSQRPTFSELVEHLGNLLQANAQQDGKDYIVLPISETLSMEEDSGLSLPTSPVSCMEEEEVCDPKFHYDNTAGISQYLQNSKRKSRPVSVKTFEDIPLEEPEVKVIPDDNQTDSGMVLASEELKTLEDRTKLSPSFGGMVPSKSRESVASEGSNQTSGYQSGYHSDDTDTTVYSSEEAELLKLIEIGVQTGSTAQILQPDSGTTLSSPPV
T4 sequence (P35916 whole entry): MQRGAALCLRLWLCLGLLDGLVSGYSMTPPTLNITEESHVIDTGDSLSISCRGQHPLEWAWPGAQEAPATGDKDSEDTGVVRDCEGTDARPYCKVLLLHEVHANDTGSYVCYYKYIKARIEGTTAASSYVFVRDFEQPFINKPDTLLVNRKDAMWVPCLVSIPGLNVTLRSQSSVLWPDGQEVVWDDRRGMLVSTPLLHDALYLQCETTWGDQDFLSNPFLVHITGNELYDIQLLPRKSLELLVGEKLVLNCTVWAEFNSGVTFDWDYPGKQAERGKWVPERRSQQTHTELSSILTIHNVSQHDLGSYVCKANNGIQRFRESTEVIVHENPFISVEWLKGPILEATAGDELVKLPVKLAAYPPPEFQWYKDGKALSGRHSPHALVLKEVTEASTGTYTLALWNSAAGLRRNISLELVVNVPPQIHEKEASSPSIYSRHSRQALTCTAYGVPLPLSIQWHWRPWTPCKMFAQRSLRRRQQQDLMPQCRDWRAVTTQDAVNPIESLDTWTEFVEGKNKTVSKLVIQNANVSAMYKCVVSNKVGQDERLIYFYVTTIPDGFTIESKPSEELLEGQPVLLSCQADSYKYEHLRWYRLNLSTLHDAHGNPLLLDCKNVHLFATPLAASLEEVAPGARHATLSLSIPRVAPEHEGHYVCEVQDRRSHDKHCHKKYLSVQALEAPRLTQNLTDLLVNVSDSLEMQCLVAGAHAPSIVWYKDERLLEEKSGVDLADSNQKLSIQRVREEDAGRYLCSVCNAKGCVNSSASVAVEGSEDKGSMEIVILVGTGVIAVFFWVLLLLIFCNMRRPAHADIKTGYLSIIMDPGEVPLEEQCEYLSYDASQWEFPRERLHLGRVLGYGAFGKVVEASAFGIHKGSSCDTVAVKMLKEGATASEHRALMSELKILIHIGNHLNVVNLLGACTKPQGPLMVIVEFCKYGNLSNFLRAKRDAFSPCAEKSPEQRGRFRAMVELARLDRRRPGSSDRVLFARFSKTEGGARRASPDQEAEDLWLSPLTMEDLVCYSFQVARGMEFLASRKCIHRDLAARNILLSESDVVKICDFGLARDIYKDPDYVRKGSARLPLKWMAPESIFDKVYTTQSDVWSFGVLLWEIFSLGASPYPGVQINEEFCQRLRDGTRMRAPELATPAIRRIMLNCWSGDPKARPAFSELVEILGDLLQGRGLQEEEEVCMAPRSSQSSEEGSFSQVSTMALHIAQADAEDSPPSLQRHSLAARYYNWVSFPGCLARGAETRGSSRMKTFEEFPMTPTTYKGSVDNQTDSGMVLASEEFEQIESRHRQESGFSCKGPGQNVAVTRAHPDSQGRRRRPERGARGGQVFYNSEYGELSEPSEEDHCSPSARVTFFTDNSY

SMILES | IC50 [1] | IC50 [2] | IC50 [3] | IC50 [4] | also measured
COc1ccc(CCCCCn2c3c(c4cc(OCCc5ccc(O)cc5)ccc42)CC(N)CC3)cc1 (stereo unspecified) | 1.37 µM | 2.86 µM | 0.94 µM | 1.81 µM | –
CSc1ccc(CCCCCn2cc(CCNC(=O)OC(C)(C)C)c3cc(OCCc4ccc(O)cc4)ccc32)cc1 | > 50 µM | > 50 µM | > 50 µM | > 50 µM | –
COc1ccc(-c2ccc(Cn3cc(CCN)c4cc(OCCc5ccc(O)cc5)ccc43)cc2)cc1 | 1.25 µM | 1.79 µM | 1.01 µM | 0.96 µM | IC50 (HUVEC [5]): 3.45 µM; IC50 (HT-29 [6]): 4.86 µM; IC50 (HT-29 [7]): 8.5 µM; IC50 (MCF7 [8]): 4.93 µM; IC50 (HUVEC [9]): 0.75 µM; IC50 (MCF7 [10]): 4.79 µM; IC50 [11]: 5.7 µM; IC50 [12]: 2.53 µM
NC1CCc2c(c3cc(OCCc4ccc(O)cc4)ccc3n2CCCCCc2ccc(C(F)(F)F)cc2)C1 (stereo unspecified) | 2.75 µM | 5.15 µM | 2.18 µM | 2.27 µM | –
NCCc1cn(Cc2ccc(-c3ccccc3)cc2)c2ccc(OCCc3ccc(O)cc3)cc12 | 1.3 µM | 2.36 µM | 1.17 µM | 4.07 µM | –
NC1CCc2[nH]c3ccc(OCCc4ccc(O)cc4)cc3c2C1 (stereo unspecified) | 15.1 µM | 10.6 µM | 27.1 µM | 34.6 µM | –
NCCc1cn(CCCCCc2ccccc2)c2ccc(OCCc3ccc(O)cc3)cc12 | 1.63 µM | 2.96 µM | 2.83 µM | 2.68 µM | –
NCCc1c[nH]c2ccc(OCCc3ccc(O)cc3)cc12 | 2.07 µM | 1.78 µM | 2.03 µM | 2.64 µM | –
NC1CCc2c(c3cc(OCCc4ccc(O)cc4)ccc3n2CCCCCc2ccccc2)C1 (stereo unspecified) | 1.01 µM | 0.93 µM | 1.06 µM | 2.17 µM | IC50 (HUVEC [5]): 5.04 µM; IC50 (HT-29 [6]): 3.81 µM; IC50 (HT-29 [7]): 11 µM; IC50 [13]: 1.01 µM; IC50 [14]: 1.22 µM; IC50 [15]: 1.09 µM; IC50 [16]: 2.11 µM; IC50 (MCF7 [8]): 4.79 µM; IC50 [17]: 1 µM; IC50 (HUVEC [9]): 1.38 µM; IC50 [18]: 2.17 µM; IC50 (MCF7 [10]): 3.85 µM; IC50 [11]: 7.76 µM; IC50 [19]: 0.93 µM; IC50 [20]: 1.04 µM; IC50 [12]: 2.25 µM; IC50 [21]: 0.99 µM; IC50 [22]: 1.06 µM; IC50 [23]: 0.98 µM; IC50 [24]: 2.19 µM
COc1ccc(CCCCCn2cc(CCN)c3cc(OCCc4ccc(O)cc4)ccc32)cc1 | 4.4 µM | 3.21 µM | 2.17 µM | 2.05 µM | –
COc1ccc(CCOc2ccc3c(c2)c(CCN)cn3CCCCCc2ccc(SC)cc2)cc1 | 2.45 µM | 0.98 µM | 1.45 µM | 1.31 µM | –
COCCc1ccc(O)cc1 | > 50 µM | > 50 µM | > 50 µM | > 50 µM | –
CN(C)c1ccc(CCCCCn2c3c(c4cc(OCCc5ccc(O)cc5)ccc42)CC(N)CC3)cc1 (stereo unspecified) | 1.91 µM | – | – | 1.66 µM | –
NC1CCc2c(c3cc(OCCc4ccc(O)cc4)ccc3n2CCCc2ccccc2)C1 (stereo unspecified) | 2.5 µM | 1.33 µM | 2.07 µM | 2.85 µM | –
CSc1ccc(CCCCCn2cc(CCN)c3cc(OCCc4ccc(O)cc4)ccc32)cc1 | 1.92 µM | 2.25 µM | 1.22 µM | 2.53 µM | –
NC1CCc2c(c3cc(OCCc4ccc(O)cc4)ccc3n2CCCCCc2ccccn2)C1 (stereo unspecified) | – | 2.8 µM | 2.12 µM | – | –
NCCc1c[nH]c2ccc(O)cc12 [SEROTONIN HYDROCHLORIDE] | > 50 µM | > 50 µM | > 50 µM | > 50 µM | –
NCCc1cn(Cc2ccc(-c3cccc(C(F)(F)F)c3)cc2)c2ccc(OCCc3ccc(O)cc3)cc12 | 1.11 µM | 1.07 µM | 1.56 µM | 3.01 µM | IC50 (HUVEC [5]): 6.32 µM; IC50 (HT-29 [6]): 4.38 µM; IC50 (HT-29 [7]): 7.95 µM; IC50 [13]: 1.11 µM; IC50 [14]: 1.02 µM; IC50 [15]: 1.48 µM; IC50 [16]: 2.98 µM; IC50 (MCF7 [8]): 3.34 µM; IC50 [17]: 1.06 µM; IC50 (HUVEC [9]): 1.98 µM; IC50 [18]: 3.01 µM; IC50 (MCF7 [10]): 3.57 µM; IC50 [11]: 6.64 µM; IC50 [19]: 1.07 µM; IC50 [20]: 1.5 µM; IC50 [12]: 2.74 µM; IC50 [21]: 1.06 µM; IC50 [22]: 1.56 µM; IC50 [23]: 1.12 µM; IC50 [24]: 3.08 µM
